Reference: patent publication US20160199380A1, “Sigma Ligands For the Prevention or Treatment of Pain Induced by Chemotherapy” (Laboratorios del Dr. Esteve, S.A., priority 2009, published 2016)

Tested on: paclitaxel-induced mechanical allodynia
Assay: Electronic Von Frey (Dynamic Plantar Aesthesiometer), paclitaxel-induced mechanical allodynia in mice
Format: in vivo, CD-1 mice
Description: Experiments were performed in CD-1 mice (Charles River, U.S.A.) with at least n=10/experimental group. […] Control animals received the same volume of solvent (a mixture of ethanol and cremophor EL)
Mechanical allodynia was evaluated with an electronically driven Von Frey filament (Dynamic Plantar. Aesthesiorneter, Ugo Basile, Varese, Italy) as previously described (Nieto et al., Pain, 2008, 137(3), 520-31), and cold allodynia was evaluated using the acetone drop method (Nieto et al., Pain, 2008, 137(3), 520-31). […] In addition, in order to study the influence of the sigma 1 receptor in this process the difference in development of allodynia was determined using wild-type mice and sigma 1-receptor knock-out-mice.
Therefore, the cumulative dose was 10 mg/kg per mouse. In the control group the vehicle of paclitaxel was administered following the same schedule.
Compound 63 was dissolved in normal saline just before administration and applied at doses of 8, 16, 32 or 64 mg/kg subcutaneously.
The effects of Compound 63 on paclitaxel-induced neuropathic pain were examined in two different ways. […] The response of the animals to the different nociceptive stimuli was tested subsequently during 2-4 weeks, depending on the test (see below), without any additional treatment. Each animal was tested only in one nociceptive model. To test the effect of compound 63 on the expression of paclitaxel-induced pain, a single compound 63 injection was performed on day 10, a day of maximum expression of mechanical allodynia or cold aliodynia (see figures for details). Each animal received only one dose of compound 63 and was tested in only one nociceptive model.
Procedure for assessment of mechanical allodynia. To assess mechanical allodynia, paw withdrawal thresholds were measured using a Dynamic Plantar Aesthesiometer (Ugo Basile, Italy). The electronic Von Frey device employs a single nonflexible filament which applies a progressively increasing force (from 0 to 10 g) against the plantar surface of the hind paw over a 20 a period. […] The day of the experiment, mice were placed individually in test compartments (9×9×14 cm) with a wire mesh bottom and allowed to acclimatize to them for 2 h. After habituation, each mouse was tested three times alternately in each hind paw.
On that day, paw withdrawal latency was recorded immediately before (time 0) and at several times (30, 60, 90, 120 and 180 min) after the injection of compound 63 or saline.

## Cc1cc(OCCN2CCOCC2)nn1-c1ccc2ccccc2c1 [Compound 63, 4-{2-[5-Methyl-1-(naphthalen-2-yl)-1H-pyrazol-3-yloxy]ethyl}morpholine]
64 mg/kg s.c. single injection on day 10 after first paclitaxel-vehicle injection
  mechanical response of control (paclitaxel-vehicle treated) animals: did not affect the mechanical response
64 mg/kg s.c. single injection on day 10 after paclitaxel 2 mg/kg i.p. days 1-5
  expression of mechanical allodynia induced by paclitaxel (threshold force for hind paw withdrawal): inhibited the expression of mechanical aliodynia induced by paclitaxel
